1 molecule from patent US6265177A, “Enzyme assay for mutant firefly luciferase” (priority 1997, dated 2001) can be followed below.

Assay type in all cases: biochemical
Settings in all cases: 21° C., 20 mM Tricine pH 7.8, 470 μM D-luciferin, ATP 6.25-800 μM, crude cell extract

The target in assay [1] is T1, Photinus pyralis luciferase mutant H245Q (His245Gln), SEQ ID NO: 6 (Photinus pyralis, UniProt P08659, H245Q).
T1 construct: ID No. 6; made in house; host or cells: E. coli JM109, crude lysed cell extract, plasmid pPW601a
T1 sequence (P08659 whole entry H245Q): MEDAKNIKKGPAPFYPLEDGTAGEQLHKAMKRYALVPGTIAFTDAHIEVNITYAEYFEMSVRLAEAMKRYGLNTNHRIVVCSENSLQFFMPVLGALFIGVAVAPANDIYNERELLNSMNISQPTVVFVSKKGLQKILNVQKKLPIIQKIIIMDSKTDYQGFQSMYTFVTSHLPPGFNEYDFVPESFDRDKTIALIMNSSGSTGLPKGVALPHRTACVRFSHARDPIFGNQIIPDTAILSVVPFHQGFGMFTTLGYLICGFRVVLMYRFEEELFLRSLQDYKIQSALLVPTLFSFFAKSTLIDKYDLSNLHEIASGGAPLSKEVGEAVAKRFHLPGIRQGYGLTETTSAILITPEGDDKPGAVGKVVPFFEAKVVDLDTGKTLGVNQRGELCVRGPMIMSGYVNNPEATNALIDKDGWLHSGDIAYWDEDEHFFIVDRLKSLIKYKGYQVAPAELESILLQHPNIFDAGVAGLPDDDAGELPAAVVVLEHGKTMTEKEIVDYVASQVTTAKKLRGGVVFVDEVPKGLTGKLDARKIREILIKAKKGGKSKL
Put plainly: Luciferase assay of Km for MgATP, mutant H245Q. The procedure: (§1) SITE DIRECTED MUTAGENESIS: Three mutagenic oligonucleotides were used to create the mutations H245A, N and Q (Ala, Asn, or Gln--see Seq ID Nos. 2, 3 & 4). The equivalent wild-type sequence is shown at Seq ID No. 5. […] The mutagenesis was carried out in accordance with the kit instructions of kit supplied by Clontech laboratories Inc, Palo Alto, Calif. USA.
The amino acid sequence of H245Q is shown in Seq. ID No. 6.
(§2) CELL CULTURE AND EXTRACTION: E. coli JM109 transformants were grown to an OD600 =1.0. Aliquots of cells expressing mutant luciferases from plasmid pPW601a, were subjected to lysis as described in the Promega technical bulletin and the lysed extracts were then stored on ice prior to assay.
(§3) ASSAY OF Km OF MUTANT LUCIFERASES: luciferase assays were performed at 21° C. using 100 μl of assay buffer (20 mM Tricine pH 7.8 containing 2.0 mM MgSO4, 0.1 mM EDTA, 33 mM dithiotheitol, 470 μM D-luciferin and ATP in the concentration range 6.25-800 μM). Each assay contained 5-10 μl of crude cell extract.
(§4) Such plots kan be used to determine the Km.

Assay [2] concerns the target T2, Photinus pyralis luciferase, recombinant wild type (r Wild Type), luc gene SEQ ID NO: 1 (Photinus pyralis, UniProt P08659).
T2 construct: made in house; host or cells: E. coli JM109, crude lysed cell extract, plasmid pPW601a
Put plainly: Luciferase assay of Km for MgATP, recombinant wild type. Here is the method: as §2, §3, §4

Assay [3] has as its target Photinus pyralis luciferase thermostable mutant A215L (printed A21SL) (Photinus pyralis, UniProt P08659, A215L). Description: Luciferase assay of Km for MgATP, thermostable mutant A215L. The procedure: as §2, §3, §4
*A215L is a thermostable mutant in which amino acid 215 is substituted with
lysine (see WO 96/22376 - SECRETARY OF STATE FOR DEFENCE).

The target of assay [4] is T3, Photinus pyralis luciferase mutant H245N (His245Asn) (Photinus pyralis, UniProt P08659, H245N).
T3 construct: made in house; host or cells: E. coli JM109, crude lysed cell extract, plasmid pPW601a
T3 sequence (P08659 whole entry H245N): as the sequence (P08659 whole entry H245Q) above, with Q245N counted along it
Description: Luciferase assay of Km for MgATP, mutant H245N. The procedure: as §1, §2, §3, §4

For assay [5], the target named is T4, Photinus pyralis luciferase mutant H245A (His245Ala) (Photinus pyralis, UniProt P08659, H245A).
T4 construct: made in house; host or cells: E. coli JM109, crude lysed cell extract, plasmid pPW601a
T4 sequence (P08659 whole entry H245A): as the sequence (P08659 whole entry H245Q) above, with Q245A counted along it
Description: Luciferase assay of Km for MgATP, mutant H245A. Here is the method: as §1, §2, §3, §4

SMILES strings stand for the structures.

By Km is commonly meant the concentration of substrate that gives half-maximal velocity.

T2 sequence (P08659 whole entry): as the sequence (P08659 whole entry H245Q) above, with Q245H counted along it
Chain of Photinus pyralis luciferase thermostable mutant A215L (printed A21SL) (P08659 whole entry A215L): as the sequence (P08659 whole entry H245Q) above, with A215L, Q245H counted along it

For the molecule `Nc1ncnc2c1ncn2[C@@H]1O[C@H](COP(=O)(O)OP(=O)(O)OP(=O)(O)O)[C@@H](O)[C@H]1O` [MgATP], the Km is 1340 µM in assay [1]; 66 µM in assay [2]; 65 µM in assay [3]; 623 µM in assay [4]; 442 µM in assay [5].
